Test results as given in patent US20240400986A1, “MEMBRANE BOUND COMPOSITIONS AND METHODS RELATING TO SAME” (FLAGSHIP PIONEERING INNOVATIONS VII, LLC, priority 2021, published 2024).
Peptide text beside a SMILES is read from it. * marks the point of attachment. Cbz = O=C(OCc1ccccc1)*

Tests used:
[1] = system: neuronal cell line derived from human neuroblastoma; details: neuronal cells, dose 100 nM, 24 hours
Experimental: For the screening, a total of 99 compounds (TargetMol) were divided in 5 groups. Each group included an untreated condition, a vehicular DMSO control, and a known high-gigasome producing condition to comparatively study gigasome production rates. As a cell death control group, 500 nM Staurosporine was added to induce apoptosis. Cultures were incubated for 24 hours under gigasome inducing conditions at concentrations ranging between 10 nM and 10,000 nM. Before the end of the treatment, live neuronal cultures were imaged. The Zeiss ZEN Blue software was used to distribute imaging fields of view (positions) to create an unbiased imaging sample of a well. 5 images were taken using a Zeiss LSM 900 confocal microscope. […] The BioApps ZEN software package was used to perform cell nucleus segmentation and counting. After 24 hours, gigasomes were harvested from the cell culture media by gently removing from the top of each 96-well ⅔ of the total volume without disturbing the cell layer (containing the settled gigasomes) and by adding to each well the same amount of PBS. […] Cells remaining in the 96-well plates were assessed for viability using CellTiter-Glo (Promega).

neuronal cells = test: Gigasome-mediated extraction of stress granule-associated protein HuR (fixed plates, confocal); format: cell-based, human
Experimental: For this paradigm, cells were treated with a low sodium arsenite concentration of 5 μM either alone or in combination with the proteasome inhibitor MG-132 at 0.2 μM. A vehicular control amount of DMSO was added to the media to comparatively study cargo signals within cells and gigasomes. Treatments were carried out in reduced serum-containing media for 24 hours to mimic a chronic exposure to arsenite. The presence of the stress-granule-related cargo within cells and in gigasomes was characterized and quantified by confocal microscopy analysis of 4% paraformaldehyde. Non-specific labeling was blocked by incubation with 5% normal goat serum in PBS in the presence of 0.1% Triton X-100, for 2 h at room temperature, followed by immunolabeling with an antibody against the RNA-binding protein HuR (see Table 12) and incubation with Alexa Fluor® 568 secondary antibodies. Phalloidin Alexa Fluor® 488 was used to mark the proximal plasma membrane. Nuclei were counterstained with DAPI.
Images were captured using a Zeiss LSM 900 confocal microscope and a 40× objective. For analysis, 10×16-bit images per well were processed to obtain a final total range of 75-200 cells. Composite images were separated in the different channels. The background was subtracted from the red cargo-related channel, as described in Example 13a. The nuclear signal in the blue channel was thresholded using the “Yen” autothreshold algorithm. To measure the nuclear-to-cytosolic translocation of the stress-granule-related protein cargo upon treatment, firstly, the cargo-related nuclear signal was subtracted from the respective red channel image by creating a nuclear selection from the thresholded blue channel image, which was added to ImageJ Manager. The nuclear selection was then transferred to the background-subtracted red channel and the nuclear cargo signal was removed from the image leaving only the cytosolic signal. The cleared red channel image was thresholded using the “default” autothreshold algorithm for downstream particle analysis. To measure the cytosolic cargo signal, a cellular mask was then generated by thresholding the Green/F-actin channel using the “Li” autothreshold method. A cytosolic selection was created, added to ImageJ Manager, and transferred to the background subtracted, nuclear-cleared red channel image. The cytosolic cargo signal (integrated density) was measured and normalized to the number of nuclei counted in each field. Particle analysis was performed as described in Example 13a, using the thresholded green channel to identify particles of interest by filtering by area and circularity and re-directing to the blue and red channel for absence of nuclear signal and eventual presence of disease-related cargo, respectively. The quantity or distribution of objects obtained from the particle analysis was obtained as described in Example 13a.

Which Viability [1] does the source give for `CC(C)C[C@@H](C=O)NC(=O)[C@H](CC(C)C)NC(=O)[C@H](CC(C)C)NC(=O)OCc1ccccc1` [MG-132, reference compound] (Cbz-Leu-Leu-Leu-aldehyde) here?
The Viability was 50-75%.

And the HuR cytosolic signal (neuronal cells; 5 μM sodium arsenite, 0.2 μM MG-132, alone or combined, 24 h, compared to DMSO (FIG. 7B))?
Its HuR cytosolic signal is “increased”.

What about the “HuR+ve particle intensity distribution (gigasome diameter and brightness)” value (neuronal cells; FIG. 7E) of the same compound?
The value was “larger in diameter and brighter”.

And the “HuR average intensity within gigasomes” value (neuronal cells; compared to sodium arsenite alone and DMSO (FIG. 7D))?
The value was “higher”.
